Assay results reported in ChEMBL document CHEMBL5518193, “Discovery of N-alkyl-N-benzyl thiazoles as novel TRPC antagonists for the treatment of glioblastoma multiforme” (Eur J Med Chem, 2024).
Activity calls are given as the source filed them. The rule behind the calls is not given here.

Target: T1, Short transient receptor potential channel 6 (Homo sapiens, UniProt Q9Y210)
T1 sequence (Q9Y210 whole entry): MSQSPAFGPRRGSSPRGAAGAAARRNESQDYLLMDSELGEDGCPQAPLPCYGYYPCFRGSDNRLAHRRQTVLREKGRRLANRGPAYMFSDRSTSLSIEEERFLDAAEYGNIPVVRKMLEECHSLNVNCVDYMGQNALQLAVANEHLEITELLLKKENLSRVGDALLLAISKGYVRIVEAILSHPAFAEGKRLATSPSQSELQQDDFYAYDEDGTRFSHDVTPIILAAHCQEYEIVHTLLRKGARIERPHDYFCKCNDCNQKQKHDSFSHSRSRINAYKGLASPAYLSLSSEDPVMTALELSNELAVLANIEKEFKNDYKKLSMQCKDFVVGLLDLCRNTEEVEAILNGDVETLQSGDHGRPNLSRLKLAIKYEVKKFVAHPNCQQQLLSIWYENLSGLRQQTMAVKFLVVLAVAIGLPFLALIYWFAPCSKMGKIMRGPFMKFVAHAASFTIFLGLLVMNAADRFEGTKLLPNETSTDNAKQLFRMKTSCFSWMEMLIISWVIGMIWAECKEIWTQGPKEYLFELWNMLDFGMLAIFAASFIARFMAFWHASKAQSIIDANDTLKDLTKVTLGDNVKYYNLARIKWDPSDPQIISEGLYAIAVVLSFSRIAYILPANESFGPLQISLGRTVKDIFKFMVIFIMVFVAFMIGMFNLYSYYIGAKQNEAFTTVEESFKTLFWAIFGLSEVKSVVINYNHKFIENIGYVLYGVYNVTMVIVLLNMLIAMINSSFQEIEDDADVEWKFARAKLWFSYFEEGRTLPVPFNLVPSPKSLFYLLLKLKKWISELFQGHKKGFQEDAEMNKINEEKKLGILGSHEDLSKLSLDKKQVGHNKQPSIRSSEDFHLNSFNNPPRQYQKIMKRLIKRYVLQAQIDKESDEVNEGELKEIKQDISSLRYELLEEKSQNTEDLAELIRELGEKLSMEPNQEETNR
Assay: Antagonist activity at TRPC6 (unknown origin) assessed as inhibition of channel activity
Details: not given

SMILES	IC50
N#Cc1ccc(O[C@@H]2c3ccccc3C[C@@H]2N2CCC[C@@H](N)C2)cc1	0.00022 µM
CCOC(=O)N1CCC(C)(C2C=C(O)N3N=C(C)C(c4ccc(F)cc4)C3=N2)CC1 (stereo not drawn)	1 µM
Cc1sc(Nc2ccc(Cl)cc2F)nc1C(=O)N1CCC[C@H](C)[C@@H]1C	0.021 µM
CC(C)(C)c1ccc(Oc2ccc(C(=O)N3CCC(c4ccc(N)nn4)CC3)cc2)cc1	0.013 µM
CC1CC(C)CN(C(=O)c2csc(Nc3ccc4c(c3)OCO4)n2)C1 (stereo not drawn)	0.01 µM
COc1cccc2sc(N(CCN(C)C)C(=O)c3ccc4c(c3)CCCC4)nc12	4.2 µM
C=C[C@@](C)(O)CC[C@H]1C(=C)C[C@H](OC(=O)NC)[C@H]2C(C)(C)CCC[C@]12C	0.0058 µM

Tested on: U-87 MG
Assay: Antitumor activity against human U87 cells xenografted in BALB/c nude mouse assessed as tumor growth inhibition at 50 mg/kg/day administered as liposome encapsulated form for 15 days and measured every 3 days by vernier caliper
Format: functional, U-87MG ATCC
Details: 360 h, time 15 day, read-out: TGI

SMILES	inhibition in vivo at 50 mg/kg/day
Cn1nnc2c(C(N)=O)ncn2c1=O [TEMOZOLOMIDE]	36.5%

Target: T2, Short transient receptor potential channel 6 (Homo sapiens) (UniProt Q9Y210)
T2 sequence (whole entry): T1 sequence (Q9Y210 whole entry)
Assay: Antagonist activity at human TRPC6 assessed as inhibition of channel activity at 10 uM relative to control
Details: filed as antagonist

SMILES	inhibition
COc1cccc2sc(N(CCN(C)C)C(=O)c3ccc4c(c3)CCCC4)nc12	84.4%

Target: T3, Short transient receptor potential channel 6 (Mus musculus) (UniProt Q61143)
T3 sequence (whole entry): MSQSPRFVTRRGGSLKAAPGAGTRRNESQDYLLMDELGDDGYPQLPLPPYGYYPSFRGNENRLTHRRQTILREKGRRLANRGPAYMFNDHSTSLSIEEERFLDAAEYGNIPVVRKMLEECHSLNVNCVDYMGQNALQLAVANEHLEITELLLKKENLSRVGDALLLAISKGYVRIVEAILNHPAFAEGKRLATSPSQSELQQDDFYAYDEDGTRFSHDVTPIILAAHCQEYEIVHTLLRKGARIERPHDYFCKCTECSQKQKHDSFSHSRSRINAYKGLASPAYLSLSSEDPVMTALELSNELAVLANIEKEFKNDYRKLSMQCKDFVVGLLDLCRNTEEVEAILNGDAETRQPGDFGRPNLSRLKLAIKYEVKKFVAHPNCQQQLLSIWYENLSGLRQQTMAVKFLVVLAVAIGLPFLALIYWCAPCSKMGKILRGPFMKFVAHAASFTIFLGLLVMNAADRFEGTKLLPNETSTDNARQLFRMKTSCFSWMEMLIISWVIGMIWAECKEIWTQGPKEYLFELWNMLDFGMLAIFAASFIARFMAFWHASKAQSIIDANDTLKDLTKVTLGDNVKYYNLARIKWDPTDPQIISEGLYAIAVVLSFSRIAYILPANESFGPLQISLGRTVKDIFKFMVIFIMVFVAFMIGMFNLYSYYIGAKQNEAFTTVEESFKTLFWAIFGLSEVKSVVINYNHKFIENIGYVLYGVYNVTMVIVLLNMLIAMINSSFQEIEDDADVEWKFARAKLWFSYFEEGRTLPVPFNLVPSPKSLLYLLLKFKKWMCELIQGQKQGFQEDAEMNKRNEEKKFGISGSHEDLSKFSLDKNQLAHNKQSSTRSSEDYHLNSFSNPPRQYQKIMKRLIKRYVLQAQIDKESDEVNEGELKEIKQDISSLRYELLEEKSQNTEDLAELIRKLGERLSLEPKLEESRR
Assay: Antagonist activity at mouse TRPC6 stably expressed in HEK293 cells assessed as inhibition of calcium influx at 10 uM by calcium fluorescence assay
Format: cell-based
Details: not given

SMILES	inhibition
CC(=O)NCCN(Cc1ccc2ccccc2c1)c1nc(C(=O)Nc2ccc(O)cc2)cs1	inactive

Target: T4, Short transient receptor potential channel 3 (Homo sapiens, UniProt Q13507)
T4 sequence (Q13507 whole entry): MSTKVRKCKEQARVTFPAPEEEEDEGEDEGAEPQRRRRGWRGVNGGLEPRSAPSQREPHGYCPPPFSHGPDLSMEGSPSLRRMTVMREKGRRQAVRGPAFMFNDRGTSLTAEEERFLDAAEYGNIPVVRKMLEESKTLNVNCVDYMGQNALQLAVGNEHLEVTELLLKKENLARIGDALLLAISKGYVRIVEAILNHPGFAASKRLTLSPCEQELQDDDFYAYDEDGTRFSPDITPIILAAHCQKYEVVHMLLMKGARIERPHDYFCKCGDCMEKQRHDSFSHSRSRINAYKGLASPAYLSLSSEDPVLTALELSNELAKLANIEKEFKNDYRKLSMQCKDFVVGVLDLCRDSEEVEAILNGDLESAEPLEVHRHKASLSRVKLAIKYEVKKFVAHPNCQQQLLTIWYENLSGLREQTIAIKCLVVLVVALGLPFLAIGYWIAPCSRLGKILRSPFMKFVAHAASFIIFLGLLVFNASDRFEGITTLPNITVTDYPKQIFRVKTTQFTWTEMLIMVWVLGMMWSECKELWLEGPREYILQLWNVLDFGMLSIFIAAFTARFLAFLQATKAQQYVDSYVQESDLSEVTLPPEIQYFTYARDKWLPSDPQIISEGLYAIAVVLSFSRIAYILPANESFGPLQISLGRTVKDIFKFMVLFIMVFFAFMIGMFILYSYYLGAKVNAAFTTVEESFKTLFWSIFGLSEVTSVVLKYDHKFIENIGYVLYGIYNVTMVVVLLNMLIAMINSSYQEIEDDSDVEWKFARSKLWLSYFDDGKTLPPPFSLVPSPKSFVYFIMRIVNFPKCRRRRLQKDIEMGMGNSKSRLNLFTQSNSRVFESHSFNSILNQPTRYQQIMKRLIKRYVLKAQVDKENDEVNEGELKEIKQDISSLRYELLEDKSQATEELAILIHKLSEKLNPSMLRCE
Assay: Antagonist activity at TRPC3 (unknown origin) assessed as inhibition of channel activity
Details: not given

SMILES	IC50
CC1CCCN(C(=O)c2nc(Nc3cc4c(cc3F)OCO4)sc2Cl)C1C (stereo not drawn)	0.005 µM
Cc1sc(Nc2ccc(Cl)cc2F)nc1C(=O)N1CCC[C@H](C)[C@@H]1C	0.003 µM
CC1CC(C)CN(C(=O)c2csc(Nc3ccc4c(c3)OCO4)n2)C1 (stereo not drawn)	0.01 µM
C=C[C@@](C)(O)CC[C@H]1C(=C)C[C@H](OC(=O)NC)[C@H]2C(C)(C)CCC[C@]12C	0.84 µM

Target: T3, Short transient receptor potential channel 6 (Mus musculus)
Assay: Antagonist activity at mouse TRPC6 stably expressed in HEK293 cells assessed as inhibition of calcium influx at 10 uM by calcium fluorescence assay relative to control
Format: cell-based
Details: not given

SMILES	inhibition
CCOC(=O)c1csc(N(CCNC(=O)OC(C)(C)C)C(=O)c2ccc(C(F)(F)F)cc2)n1	18.7%
CCOC(=O)c1csc(N(CCN)Cc2ccc(OC(F)F)cc2)n1	26.1%
CCOC(=O)c1csc(N(CCNS(N)(=O)=O)Cc2ccc3ccccc3c2)n1	0.8%
CCOC(=O)c1csc(N(CCNC(=O)OC(C)(C)C)C(=O)c2ccc([N+](=O)[O-])cc2)n1	30.3%
CCOC(=O)c1csc(N(CCN)Cc2cccc(F)c2F)n1	14.7%
NCCN(Cc1ccc2ccccc2c1)c1nc(C(=O)O)cs1	29%
NCCN(Cc1cccc(C(F)(F)F)c1)c1nc(C(=O)Nc2ccc(O)cc2)cs1	10.8%
CCOC(=O)c1csc(N(CCNS(C)(=O)=O)Cc2ccc3ccccc3c2)n1	32.4%
CCOC(=O)c1csc(N(CCN)Cc2c(F)c(F)c(F)c(F)c2F)n1	29.2%
CCOC(=O)c1csc(N(CCN)Cc2cccc([N+](=O)[O-])c2)n1	22.1%
NCCN(Cc1ccc2ccccc2c1)c1nc(C(=O)NC23CC4CC(CC(C4)C2)C3)cs1	35.6%
CCOC(=O)c1csc(N(CCN)Cc2ccc([N+](=O)[O-])cc2)n1	28.3%
CCOC(=O)c1csc(N(CCN)C(=O)c2ccc([N+](=O)[O-])cc2)n1	23%
CCOC(=O)c1csc(NCCN)n1	19.3%
CCOC(=O)c1csc(N(CCN)Cc2ccccc2)n1	30.5%
NCCN(Cc1cccc(C(F)(F)F)c1)c1nc(C(=O)Nc2ncc[nH]2)cs1	18.5%

Same assay, conditions: filed as antagonist

SMILES	inhibition
CCOC(=O)c1csc(N(CCN)Cc2ccc3ccccc3c2)n1	97.9%
CCOC(=O)c1csc(N(CCN)Cc2cccc(C(F)(F)F)c2)n1	92.2%
CCN(CC)CCNC(=O)c1csc(N(CCN)Cc2cccc(C(F)(F)F)c2)n1	50.6%
CCOC(=O)c1csc(N(CCN)Cc2cccc(OC(F)F)c2)n1	40.9%
CCN(CC)CCNC(=O)c1csc(N(CCN)Cc2ccc3ccccc3c2)n1	53.3%
CCOC(=O)c1csc(N(CCN)Cc2ccc(C(F)(F)F)cc2)n1	84.6%
NCCN(Cc1cccc(C(F)(F)F)c1)c1nc(C(=O)NCCc2ccccc2)cs1	81.9%
CCOC(=O)c1csc(N(CCN)C(=O)c2ccc(C(F)(F)F)cc2)n1	44.2%
CCOC(=O)c1csc(N(CCN)Cc2ccc3ccccc3n2)n1	56.6%
CCOC(=O)c1csc(N(CCN)Cc2cc(F)ccc2Br)n1	59.5%
CCOC(=O)c1csc(N(CCN)Cc2ccc3cc(Br)ccc3c2)n1	56.8%
CCOC(=O)c1csc(N(CCN)Cc2cccc3ccccc23)n1	77.6%
COc1cccc2sc(N(CCN(C)C)C(=O)c3ccc4c(c3)CCCC4)nc12	84.8%
